Results on three compounds are retold here after patent publication US7691836B2, “Progesterone receptor modulators” (N.V. Organon, priority 2004, dated 2010).

The structures appear in SMILES notation. pEC50: −log10 of the molar value. Structures can show the parent of a compound that is named as a salt.

Test [1] has as its target T1, progesterone receptor-B (Homo sapiens, UniProt P06401).
T1 sequence (P06401 1-933): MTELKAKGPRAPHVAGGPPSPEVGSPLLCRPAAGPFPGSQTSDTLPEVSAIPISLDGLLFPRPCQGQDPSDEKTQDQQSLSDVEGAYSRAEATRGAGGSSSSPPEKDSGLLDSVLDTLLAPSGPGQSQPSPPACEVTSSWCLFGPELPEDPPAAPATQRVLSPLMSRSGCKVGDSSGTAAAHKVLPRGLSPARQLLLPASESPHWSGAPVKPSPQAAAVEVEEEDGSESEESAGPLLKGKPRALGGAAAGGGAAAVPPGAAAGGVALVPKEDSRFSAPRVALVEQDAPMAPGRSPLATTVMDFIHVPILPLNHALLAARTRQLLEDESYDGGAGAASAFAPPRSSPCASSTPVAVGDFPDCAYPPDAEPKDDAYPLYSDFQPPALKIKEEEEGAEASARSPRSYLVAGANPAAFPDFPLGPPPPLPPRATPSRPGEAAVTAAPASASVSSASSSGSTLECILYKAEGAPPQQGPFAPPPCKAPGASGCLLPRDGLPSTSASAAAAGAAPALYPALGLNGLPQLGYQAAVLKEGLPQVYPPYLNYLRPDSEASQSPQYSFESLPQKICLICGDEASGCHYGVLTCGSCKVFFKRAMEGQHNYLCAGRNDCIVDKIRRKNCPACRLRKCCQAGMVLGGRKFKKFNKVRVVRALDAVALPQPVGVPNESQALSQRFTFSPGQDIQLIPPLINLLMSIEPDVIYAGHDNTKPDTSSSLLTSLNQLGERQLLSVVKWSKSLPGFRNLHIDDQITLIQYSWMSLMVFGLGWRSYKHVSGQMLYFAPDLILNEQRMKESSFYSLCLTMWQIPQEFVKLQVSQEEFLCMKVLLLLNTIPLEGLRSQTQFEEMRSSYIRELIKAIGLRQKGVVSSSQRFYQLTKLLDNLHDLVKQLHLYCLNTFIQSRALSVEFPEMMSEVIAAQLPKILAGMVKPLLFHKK
The test can be described thus: Progesterone receptor-B transactivation, agonistic mode (CHO cells, luciferase). The format is cell-based. The conditions noted are these: for pEC50: CHO cells, agonistic mode, read-out: PRBagoEC50; for Emax: CHO, read-out: PRBago Eff (%). An excerpt:
For selecting compounds of the subject invention with a mixed modulating effect on the progesterone receptor, testing in the agonistic mode must result in an intrinsic activity of between about 15% and about 85% of the maximal activity when (16α)-16-ethyl-21-hydroxy-19-norpregn-4-ene-3,20-dione is used as a reference. Moreover, this maximal agonistic activity should be reached at a concentration of 10^−6 or less, and preferably at a concentration of 10^−8 or less.
(§1) The progestagenic activity of a compound of the invention (EC50 and intrinsic agonistic activity) was determined in an in vitro bioassay of Chinese hamster ovary (CHO) cells as described by W. G. E. J. Schoonen et al. (Anal. Biochem. 261 (1998), 222-224). […] The efficacy of the antagonistic effect was expressed as the percentage of the effect produced by a standard antagonist, (6β,11β,17β)-11-[4-(dimethylamino)phenyl]-4′,5′-dihydro-6-methylspiro[estra-4,9-diene-17,2′(3′H)-furan]-3-one.
(§2) It will be recognized by those skilled in the art that, in the setting described above, the EC50 determined is more or less absolute and depends on the intrinsic property of the tested compound itself, however, the IC50 depends on the amount and agonistic EC50 of the inducer as well as on the intrinsic property of the tested compound itself. Thus, with the same amount of inducer, a relatively strong antagonist will be able to produce a measurable IC50 whereas a relatively weak antagonist may fail to produce a detectable result.

Test [2] deals with T1, progesterone receptor-B. The experiment in a line: Progesterone receptor-B transactivation, antagonistic mode (inhibition of luciferase transactivation by inducer, CHO cells). The conditions noted are these: for pEC50: in the presence of 0.1 nM inducer (16α)-16-ethyl-21-hydroxy-19-norpregn-4-ene-3,20-dione, read-out: PRBant EC50; for Emax: CHO, read-out: PRBant Eff (%). The format is cell-based. The method, then:
In the antagonistic mode, testing must result in an intrinsic activity of between about 85% and about 15% of the maximal activity when (6β,11β,17β)-11-[4-(dimethylamino)phenyl]-4′,5′-dihydro-6-methylspiro[estra-4,9-diene-17,2′(3′H)-furan]-3-one is used as a reference.
as §1, §2

Setting [3] is: intrinsic agonistic activity, relative to reference (16α)-16-ethyl-21-hydroxy-19-norpregn-4-ene-3,20-dione.
The mark [4] stands for this setting: intrinsic antagonistic activity, percentage of effect of standard antagonist (6β,11β,17β)-11-[4-(dimethylamino)phenyl]-4′,5′-dihydro-6-methylspiro[estra-4,9-diene-17,2′(3′H)-furan]-3-one, 0.1 nM inducer.

In the case of `CC12CC(c3ccc(-c4cccnc4)cc3)C3=C4CCC(=O)C=C4CCC3C1CCC21CCCC1=O` (stereo not drawn) [Example 25, (11β)-11-[4-(3-pyridinyl)phenyl]-17,24-cyclo-19,21-dinorchola-4,9-diene-3,20-dione hydrochloride], the pEC50 was 9.32 in test [1] and 8.96 in test [2]. Further, the “PRBago Eff (%)” value in test [1] (setting [3]) is 17%. Besides, the “PRBant Eff (%)” value in test [2] (intrinsic antagonistic activity, percentage of effect of standard antagonist (6β,11β,17β)-11-[4-(dimethylamino)phenyl]-4′,5′-dihydro-6-methylspiro[estra-4,9-diene-17,2′(3′H)-furan]-3-one, 0.1 nM inducer, hydrochloride) came out at 66%.
For `C[C@@H]1C[C@@H]2C(=C3CCC(=O)C=C31)[C@@H](c1ccc(-c3cccnc3)cc1)C[C@@]1(C)[C@H]2C[C@@H](C)[C@@H]1C(=O)C1CC1` [Example 26, (6β,11β,16α,17β)-17-cyclopropylcarbonyl-6,16-dimethyl-11-[4-(3-pyridinyl)-phenyl]estra-4,9-dien-3-one], the pEC50 was 9.09 in test [1] and 8.56 in test [2]. Moreover, the Emax was 46% in test [1] (setting [3]) and 17% in test [2] (setting [4]).
The corresponding values for `C[C@@H]1C[C@H]2[C@@H]3CCC4=CC(=O)CCC4=C3[C@@H](c3ccc(-c4ncccn4)cc3)C[C@]2(C)[C@H]1C(=O)C1CC1` [Example 27, (11β,16α,17β)-17-cyclopropylcarbonyl-16-methyl-11-[4-(pyrimidin-2-yl)phenyl]estra-4,9-dien-3-one] are 8.60, 8.49, 52% and greater than 27%.
